The values that follow come from US4242329A, “Bradykinin-inhibiting tripeptide derivatives” (AB Kabi, priority 1978, dated 1980).

Non-standard residues stand in square brackets, D forms with d. Residues, ends and D or L forms follow the SMILES beside them.

The subject of the experiment is isolated rat uterus. In words: Bradykinin-inhibiting activity on isolated rat uterus (contraction at ED70 of bradykinin). The experiment is classed as cell-based. Particulars: for Inhibition of bradykinin effect, %: against ED70 of bradykinin, isolated rat uterus; for Duration of inhibition: time until bradykinin again gives the original contraction. The method, then: The bradykinin-inhibiting activity of the new tripeptide derivatives is evident from the following disclosure of the biological evaluation on isolated organs. The bradykinin-inhibiting activity is studied on isolated rat uterus. The rats are pretreated subcutanous with 0.2 mg/kg of diethyl stilbestrol, 12-15 hours prior to the experiment. The muscle from uterus which is longitudinally sectioned into halves is arranged in a smooth muscle bath with de Jalon's buffer (de Jalon et al., Farmacother.Acta, Vol. 3, p. 313, 1945), oxygenated with carbogene gas (5% carbon dioxide, 95% oxygen). The temperature is maintained at 35° C. The muscle is stretched with a tension corresponding to 0.5 g. The isometric tension is measured with Grass (FT 03C) force transmitter connected to a Grass polygraph.
Muscle contractions for bradykinin in bath concentrations of 10^-11 -10^-6 M (mole/liter) are registrated, and thereafter the concentration of bradykinin which induces 70% of maximum muscle contraction (ED70) is evaluated. The bradykinin inhibiting activity is then tested with the tripeptide derivatives in bath concentrations of 10^-8, 10^-7, 10^-6 and 10^-5 M, against the ED70 for bradykinin of resp. muscle. For each concentration the tripeptide derivatives are incubated with the uterus tissue 5 and 10 minutes resp. before the addition of bradykinin. The bradykinin-inhibiting activity is expressed as the time in minutes required until bradykinin again gives the original contraction. Each addition of bradykinin is followed by washing with the buffer.

The mark [1] stands for this setting: conc. in test bath 10^-5 mole/liter.
Where [2] appears, read: conc. in test bath 10^-6 mole/liter.
The mark [3] stands for this setting: conc. in test bath 10^-7 mole/liter.
Where [4] appears, read: conc. in test bath 10^-8 mole/liter.

On to `CCCCCCCOC(=O)[C@H](CCCNC(=N)N)NC(=O)[C@H](Cc1ccccc1)NC(=O)[C@H]1CCCN1` [Example I, H-D-Pro-Phe-Arg-O-heptyl], for which the “Inhibition of bradykinin effect, %” value was 100% under setting [1], 100% under setting [2], 10% under setting [3] and 10% under setting [4]. For the same molecule, the “Duration of inhibition” value reads like this: under setting [1], 35 min; under setting [2], 15 min; under setting [3], 15 min; under setting [4], 15 min.

For `CCCCCCCNC(=O)[C@H](CCCNC(=N)N)NC(=O)[C@H](Cc1ccccc1)NC(=O)[C@H]1CCCN1` [Example II, H-D-Pro-Phe-Arg-NH-heptyl], the “Inhibition of bradykinin effect, %” value under setting [1] was 100%; the “Inhibition of bradykinin effect, %” value under setting [2] turned out to be 100%; the “Inhibition of bradykinin effect, %” value under setting [3] turned out to be 15%; the “Inhibition of bradykinin effect, %” value under setting [4] is 15%. For the same molecule, the “Duration of inhibition” value was 45 min under setting [1], 30 min under setting [2], 20 min under setting [3] and 15 min under setting [4].

Regarding `N=C(N)NCCC[C@H](NC(=O)[C@H](Cc1ccccc1)NC(=O)[C@H]1CCCN1)C(N)=O` [Example III, H-D-Pro-Phe-Arg-NH2] (H-[dP]-Phe-Arg-NH2), the “Inhibition of bradykinin effect, %” value was determined as 100% under setting [1], 100% under setting [2], 15% under setting [3] and 15% under setting [4]. The “Duration of inhibition” value amounted to 50 min under setting [1], 30 min under setting [2], 15 min under setting [3] and 15 min under setting [4].
